Measurements taken from paper PMC7307906, “Macrocyclic Modalities Combining Peptide Epitopes and Natural Product Fragments” (Journal of the American Chemical Society, 2020).
Where “and” joins values, the source holds several entries; their conditions need not be identical. Equal values may be shown once. Read-outs that look alike come from different tables or passages of the source. Blank lines part the entries; values can stand above or below the molecule they belong to.

Columns and labels:
human MC1R [1] = target: T1, human MC1R (Homo sapiens, UniProt Q01726); test: Melanocortin receptor radioligand binding (SPA, [125I]-NDP-α-MSH displacement), MC1R; details: competitive binding, mean (± SEM) of at least three independent experiments, read-out: IC50 hMC1R binding
T1 construct: expressed in transfected cells

human MC3R [2] = target: T2, human MC3R (Homo sapiens, UniProt P41968); test: Melanocortin receptor radioligand binding (SPA, [125I]-NDP-α-MSH displacement), MC3R; details: competitive binding, mean (± SEM) of at least three independent experiments, read-out: IC50 hMC3R binding
T2 construct: expressed in transfected cells

human MC4R [3] = target: T3, human MC4R (Homo sapiens, UniProt P32245); test: Melanocortin receptor radioligand binding (SPA, [125I]-NDP-α-MSH displacement), MC4R; details: competitive binding, mean (± SEM) of at least three independent experiments, read-out: IC50 hMC4R binding
T3 construct: expressed in transfected cells

human MC5R = target: T4, human MC5R (Homo sapiens, UniProt P33032); test: Melanocortin receptor radioligand binding (SPA, [125I]-NDP-α-MSH displacement), MC5R; details: competitive binding, [125I]-NDP-α-MSH; mean (± SEM) of at least three independent experiments; read-out: IC50 hMC5R binding
T4 construct: expressed in transfected cells; host or cells: HEK293-6E suspension cells, transient expression; membranes

human MC1R [4] = target: T1, human MC1R; test: cAMP assay (LANCE) in T-Rex-293 cells expressing MC1R; type: cell-based; details: for Emax: T-REx-293, read-out: % Effect hMC1R cAMP; for EC50: cAMP assay, mean (± SEM) of at least three independent experiments, read-out: EC50 hMC1R cAMP
human MC3R [5] = target: T2, human MC3R; test: cAMP assay (LANCE) in T-Rex-293 cells expressing MC3R; type: cell-based; details: for EC50: cAMP assay, mean (± SEM) of at least three independent experiments, read-out: EC50 hMC3R cAMP
human MC4R [6] = target: T3, human MC4R; test: cAMP assay (LANCE) in T-Rex-293 cells expressing MC4R; type: cell-based; details: for EC50: cAMP assay, mean (± SEM) of at least three independent experiments, read-out: EC50 hMC4R cAMP
[7] = resin
[8] = Emax (curve plateau), relative to NDP-α-MSH, NA = No Activity detected, threshold 20% effect
[9] = other bond, imine formation, then N-phenylmaleimide cycloaddition (RP-04), with chain assembly
[10] = other bond, N-phenylmaleimide (RP-04; imine cyclization/1,3-dipolar cycloaddition), 4 steps

T1 sequence (Q01726 whole entry): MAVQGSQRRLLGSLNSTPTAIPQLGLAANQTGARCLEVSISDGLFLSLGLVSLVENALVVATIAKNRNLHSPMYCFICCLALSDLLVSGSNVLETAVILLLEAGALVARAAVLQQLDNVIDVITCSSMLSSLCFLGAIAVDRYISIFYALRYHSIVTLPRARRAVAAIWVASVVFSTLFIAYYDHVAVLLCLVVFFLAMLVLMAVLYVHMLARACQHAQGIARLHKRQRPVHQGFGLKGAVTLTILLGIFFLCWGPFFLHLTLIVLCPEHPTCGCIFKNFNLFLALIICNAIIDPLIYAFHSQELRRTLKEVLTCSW
T4 sequence (P33032 whole entry): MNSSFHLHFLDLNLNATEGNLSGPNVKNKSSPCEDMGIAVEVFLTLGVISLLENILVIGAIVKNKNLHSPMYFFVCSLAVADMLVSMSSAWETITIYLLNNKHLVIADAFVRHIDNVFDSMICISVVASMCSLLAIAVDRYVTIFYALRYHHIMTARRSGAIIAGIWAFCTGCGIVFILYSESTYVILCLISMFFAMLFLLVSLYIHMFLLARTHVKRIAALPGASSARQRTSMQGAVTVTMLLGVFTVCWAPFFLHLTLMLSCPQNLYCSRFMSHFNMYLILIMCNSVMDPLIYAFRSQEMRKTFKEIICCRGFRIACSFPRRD
T2 sequence (P41968 whole entry): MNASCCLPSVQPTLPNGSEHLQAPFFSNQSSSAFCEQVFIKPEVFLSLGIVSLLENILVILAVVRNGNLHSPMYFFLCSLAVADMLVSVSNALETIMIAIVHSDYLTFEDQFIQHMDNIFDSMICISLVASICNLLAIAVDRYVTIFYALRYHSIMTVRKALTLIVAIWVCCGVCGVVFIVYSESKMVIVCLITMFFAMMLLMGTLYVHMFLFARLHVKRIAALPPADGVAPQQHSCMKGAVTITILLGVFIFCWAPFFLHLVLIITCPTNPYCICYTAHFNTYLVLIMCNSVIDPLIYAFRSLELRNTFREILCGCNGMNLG
T3 sequence (P32245 whole entry): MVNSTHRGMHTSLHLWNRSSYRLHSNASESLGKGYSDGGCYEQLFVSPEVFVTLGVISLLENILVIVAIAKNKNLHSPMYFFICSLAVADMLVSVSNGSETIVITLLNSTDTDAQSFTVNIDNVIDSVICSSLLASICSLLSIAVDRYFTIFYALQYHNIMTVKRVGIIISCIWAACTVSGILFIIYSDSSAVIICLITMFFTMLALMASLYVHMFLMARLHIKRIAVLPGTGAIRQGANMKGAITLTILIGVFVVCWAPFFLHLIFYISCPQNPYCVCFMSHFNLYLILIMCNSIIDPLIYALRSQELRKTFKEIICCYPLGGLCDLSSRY

IC50 (human MC1R [1]): 41 ± 2 µM
IC50 (human MC3R [2]): 32 ± 2 µM
IC50 (human MC4R [3]): 34 ± 3 µM
IC50 (human MC5R): 16 ± 2 µM
Emax (human MC1R [4]): 37%
EC50 (human MC1R [4]): 1.8 ± 1.2 µM
EC50 (human MC3R [5]): > 100 µM
EC50 (human MC4R [6]): > 100 µM
Molecule: C[C@@H]1NC(=O)[C@H](CC(N)=O)NC(=O)[C@H](Cc2ccccc2)NC(=O)[C@H](Cc2ccccc2)NC(=O)[C@H](CCCNC(=N)N)NC(=O)[C@H](Cc2ccccc2)N(C)C(=O)[C@@H]2N[C@H](c3ccc(cc3)C(=O)NCCCC[C@@H](C(=O)N[C@@H](Cc3ccc(O)cc3)C(N)=O)NC(=O)[C@H](Cc3ccccc3)NC1=O)[C@@H]1C(=O)N(C)C(=O)[C@@H]12 [B1-major, [ I-FRFFNAFK ]Y]

IC50 (human MC1R [1]): > 100 µM
IC50 (human MC3R [2]): > 100 µM
IC50 (human MC4R [3]): 96 ± 4 µM
IC50 (human MC5R): 31 ± 0.4 µM
Emax (human MC1R [4]): 39%
EC50 (human MC1R [4]): 10 ± 2 µM
EC50 (human MC3R [5]): > 100 µM
EC50 (human MC4R [6]): > 100 µM
Molecule: C[C@@H]1NC(=O)[C@H](CC(N)=O)NC(=O)[C@H](Cc2ccccc2)NC(=O)[C@H](Cc2ccccc2)NC(=O)[C@H](CCCNC(=N)N)NC(=O)[C@H](Cc2ccccc2)N(C)C(=O)[C@H]2N[C@@H](c3ccc(cc3)C(=O)NCCCC[C@@H](C(=O)NCC(N)=O)NC(=O)[C@H](Cc3ccccc3)NC1=O)[C@H]1C(=O)N(C)C(=O)[C@H]12 [B2-minor, [ I-FRFFNAFK ]G]

IC50 (human MC1R [1]): > 10 µM
IC50 (human MC3R [2]): > 10 µM
IC50 (human MC4R [3]): > 10 µM
IC50 (human MC5R): > 10 µM
EC50 (human MC1R [4]): > 10 µM
EC50 (human MC3R [5]): > 10 µM
EC50 (human MC4R [6]): > 10 µM
Molecule: C[C@@H]1NC(=O)[C@H](CC(N)=O)NC(=O)[C@H](Cc2ccccc2)NC(=O)[C@H](Cc2ccccc2)NC(=O)[C@H](CCCNC(=N)N)NC(=O)[C@H](Cc2ccccc2)N(C)C(=O)[C@H]2N[C@@H](c3ccc(cc3)C(=O)NCCCC[C@@H](C(=O)NCC(N)=O)NC(=O)[C@H](Cc3ccccc3)NC1=O)[C@H]1C(=O)N(c3ccccc3)C(=O)[C@H]12 [B3-major*, [ II-FRFFNAFK]G]

IC50 (human MC1R [1]): 23 ± 1 µM
IC50 (human MC3R [2]): 36 ± 1 µM
IC50 (human MC4R [3]): 26 ± 2 µM
IC50 (human MC5R): 13 ± 1 µM
Emax (human MC1R [4]): 47%
EC50 (human MC1R [4]): 1.8 ± 0.3 µM
EC50 (human MC3R [5]): > 100 µM
EC50 (human MC4R [6]): > 100 µM
Molecule: C[C@@H]1NC(=O)[C@H](CC(N)=O)NC(=O)[C@@H](Cc2ccccc2)NC(=O)[C@@H](Cc2ccccc2)NC(=O)[C@H](CCCNC(=N)N)NC(=O)[C@H](Cc2ccccc2)N(C)C(=O)[C@@H]2N[C@H](c3ccc(cc3)C(=O)NCCCC[C@@H](C(=O)N[C@@H](Cc3ccc(O)cc3)C(N)=O)NC(=O)[C@H](Cc3ccccc3)NC1=O)[C@@H]1C(=O)N(C)C(=O)[C@@H]12 [C1-major, [I-FRffNAFK ]Y]

Emax (human MC1R [4]): 36%
Molecule: C[C@@H]1NC(=O)[C@H](CC(N)=O)NC(=O)[C@@H](Cc2ccccc2)NC(=O)[C@@H](Cc2ccccc2)NC(=O)[C@H](CCCNC(=N)N)NC(=O)[C@H](Cc2ccccc2)N(C)C(=O)C2NC(c3ccc(cc3)C(=O)NCCCC[C@@H](C(=O)N[C@@H](Cc3ccc(O)cc3)C(N)=O)NC(=O)[C@H](Cc3ccccc3)NC1=O)C1(C(=O)Nc3ccccc31)C2c1ccccc1 (stereo partly shown) [C2-minor, [X-FRffNAFK ]Y]

IC50 (human MC1R [1]): 88 ± 1 µM
IC50 (human MC3R [2]): > 100 µM
IC50 (human MC4R [3]): 72 ± 4 µM
IC50 (human MC5R): 36 ± 3 µM
Emax (human MC1R [4]): 56%
EC50 (human MC1R [4]): 2.2 ± 1 µM
EC50 (human MC3R [5]): > 100 µM
EC50 (human MC4R [6]): > 100 µM
Molecule: C[C@@H]1NC(=O)[C@H](CC(N)=O)NC(=O)[C@@H](Cc2ccccc2)NC(=O)[C@@H](Cc2ccccc2)NC(=O)[C@H](CCCNC(=N)N)NC(=O)[C@H](Cc2ccccc2)N(C)C(=O)[C@@H]2N[C@H](c3ccc(cc3)C(=O)NCCCC[C@@H](C(=O)NCC(N)=O)NC(=O)[C@H](Cc3ccccc3)NC1=O)[C@@H]1C(=O)N(C)C(=O)[C@@H]12 [C4-major, [I-FRffNAFK ]G]

IC50 (human MC1R [1]): > 100 µM
IC50 (human MC3R [2]): > 100 µM
IC50 (human MC4R [3]): > 100 µM
IC50 (human MC5R): 49 ± 2 µM
Emax (human MC1R [4]): 31%
EC50 (human MC1R [4]): 14 ± 4 µM
EC50 (human MC3R [5]): > 100 µM
EC50 (human MC4R [6]): > 100 µM
Molecule: C[C@@H]1NC(=O)[C@H](CC(N)=O)NC(=O)[C@H](Cc2ccccc2)NC(=O)[C@H](Cc2ccccc2)NC(=O)[C@H](CCCNC(=N)N)NC(=O)[C@H](Cc2ccccc2)N(C)C(=O)[C@H]2N[C@@H](c3ccc(cc3)C(=O)NCCCC[C@@H](C(=O)N[C@@H](Cc3ccc(O)cc3)C(N)=O)NC1=O)[C@H]1C(=O)N(C)C(=O)[C@H]12 [F1-major*, [ I-FRFFNAK ]Y]

IC50 (human MC1R [1]): 65 ± 6 µM
IC50 (human MC3R [2]): 80 ± 5 µM
IC50 (human MC4R [3]): 57 ± 5 µM
IC50 (human MC5R): 16 ± 1 µM
Emax (human MC1R [4]): 36%
EC50 (human MC1R [4]): 10 ± 1 µM
EC50 (human MC3R [5]): > 100 µM
EC50 (human MC4R [6]): > 100 µM
Molecule: C[C@@H]1NC(=O)[C@H](CC(N)=O)NC(=O)[C@H](Cc2ccccc2)NC(=O)[C@H](Cc2ccccc2)NC(=O)[C@H](CCCNC(=N)N)NC(=O)[C@H](Cc2ccccc2)N(C)C(=O)[C@@H]2N[C@H](c3ccc(cc3)C(=O)NCCCC[C@@H](C(=O)N[C@@H](Cc3ccc(O)cc3)C(N)=O)NC1=O)[C@@H]1C(=O)N(C)C(=O)[C@@H]12 [F1-minor*, [ I-FRFFNAK ]Y]

Emax (human MC1R [4]): 36%
Molecule: CN1C(=O)[C@@H]2N[C@H](c3ccc(cc3)C(=O)NCCCC[C@@H](C(=O)NCC(N)=O)NC(=O)[C@H](Cc3ccccc3)NC(=O)[C@H](Cc3ccccc3)NC(=O)[C@H](CCCNC(=N)N)NC(=O)[C@@H]1Cc1ccccc1)[C@@H]1C(=O)N(c3ccccc3)C(=O)[C@@H]12 [N2-minor*, [II-FRFFK ]G]

Second part, the molecule before the results:

Molecule: CCCC[C@H](NC(C)=O)C(=O)N[C@H]1CC(=O)NCCCC[C@@H](C(=O)O)NC(=O)[C@H](Cc2c[nH]c3ccccc23)NC(=O)[C@H](CCCNC(=N)N)NC(=O)[C@@H](Cc2ccccc2)NC(=O)[C@H](Cc2c[nH]cn2)NC1=O [Bremelanotid (BreMT), Bremelanotid, reference compound]
% Effect hMC1R cAMP (human MC1R [4]; [8]): 97%

Molecule: C[C@@H]1NC(=O)[C@H](CC(N)=O)NC(=O)[C@@H](Cc2ccccc2)NC(=O)[C@@H](Cc2ccccc2)NC(=O)[C@H](CCCNC(=N)N)NC(=O)[C@H](Cc2ccccc2)N(C)C(=O)[C@@H]2N[C@H](c3ccc(cc3)C(=O)NCCCC[C@@H](C(=O)N[C@@H](Cc3ccc(O)cc3)C(N)=O)NC(=O)[C@H](Cc3ccccc3)NC1=O)[C@]1(C(=O)Nc3ccccc31)[C@H]2c1ccccc1 [C2-major, [X-FRffNAFK ]Y]
Emax (human MC1R [4]): 57%

Molecule: CN1C(=O)[C@@H]2N[C@H](c3ccc(cc3)C(=O)NCCCC[C@@H](C(=O)N[C@@H](Cc3ccc(O)cc3)C(N)=O)NC(=O)[C@H](Cc3ccccc3)NC(=O)[C@H](Cc3ccccc3)NC(=O)[C@H](CCCNC(=N)N)NC(=O)[C@@H]1Cc1ccccc1)[C@@H]1C(=O)N(c3ccccc3)C(=O)[C@@H]12 [N1-minor*, [II-FRFFK ]Y]
Emax (human MC1R [4]): 56%

Molecule: CN1C(=O)[C@@H]2N[C@H](c3ccc(cc3)C(=O)NCCCC[C@@H](C(=O)N[C@@H](Cc3ccc(O)cc3)C(N)=O)NC(=O)[C@@H](Cc3ccccc3)NC(=O)[C@@H](Cc3ccccc3)NC(=O)[C@H](CCCNC(=N)N)NC(=O)[C@@H]1Cc1ccccc1)[C@@H]1C(=O)N(c3ccccc3)C(=O)[C@@H]12 [O2-major, [II-FRffK ]Y]
Emax (human MC1R [4]): 62%

Molecule: CC(=O)N[C@@H](CCCNC(=N)N)C(=O)N[C@H]1CSSC[C@@H](C(N)=O)NC(=O)[C@H](Cc2c[nH]c3ccccc23)NC(=O)[C@H](CCCNC(=N)N)NC(=O)[C@@H](Cc2ccccc2)NC(=O)[C@H](Cc2c[nH]cn2)NC(=O)[C@@H](C)NC1=O [RM493, reference compound]
IC50 (human MC5R): 1.8 ± 0.3 µM
Emax (human MC1R [4]): 96%
% Effect hMC3R cAMP (human MC3R [5]; [8]): 98%
% Effect hMC4R cAMP (human MC4R [6]; [8]): 100%

Molecule: [N-Ph-fused-di-pyrrolidine-NMeFRFFK], N3
ring closure, yield after HPLC [7, 9]: 2%

Molecule: [N-Ph-fused-di-pyrrolidine-NMeFRFFK]G, N2
ring closure, yield after HPLC [7, 9]: 2% and 3%

Molecule: [N-Ph-fused-di-pyrrolidine-NMeFRFFK]Y, N1
ring closure, yield after HPLC ([7]; other bond, imine formation, then N-phenylmaleimide cycloaddition (RP-04), 4 steps): 16% and 10%

Molecule: [N-Ph-fused-di-pyrrolidine-NMeFRFFNAK]Y
ring closure, yield after HPLC [7, 10]: 2%

Molecule: [N-Ph-fused-di-pyrrolidine-NMeFRffK]Y, O2
ring closure, yield after HPLC [7, 9]: 2%

Molecule: [N-Ph-fused-di-pyrrolidine-NMeFRffNK]G
ring closure, yield after HPLC ([7]; other bond, Fmoc removal (RP-03), imine cyclization/N-phenylmaleimide 1,3-dipolar cycloaddition (RP-04), 3 steps): 1%

Molecule: [N-Ph-fused-di-pyrrolidine-NMeFRffNK]Y
ring closure, yield after HPLC ([7]; amide bond, 31-membered ring, 3 steps): 2%

Molecule: [N-Ph-fused-di-pyrrolidine-NMeVDINNNK]G
ring closure, yield after HPLC ([7]; other bond, Fmoc removal, intramolecular imine, N-phenylmaleimide 1,3-dipolar cycloaddition, 4 steps): 2% and 4%

Molecule: [N-Ph-fused-di-pyrrolidine-NMeVINNNK]G
ring closure, yield after HPLC [7, 10]: 7%

Molecule: [Ph-pyrrolidinyl-spirooxindole-NMeFRffNAK]G
ring closure, yield after HPLC ([7]; other bond, (E)-3-benzylidene-indolin-2-one (RP-04; imine cyclization/1,3-dipolar cycloaddition), 4 steps): 5%

Molecule: [pyrrolidine-NMeFDINNNK]G
ring closure, yield after HPLC ([7]; other bond, Fmoc removal (RP-03), imine cyclization/1,3-dipolar cycloaddition, dimethyl maleate (RP-04), 4 steps): 6% and 7%
